This is an account of results in patent US8163952B2, “RAR receptor agonist ligands and use thereof in human medicine and cosmetics” (Galderma Research & Development, priority 2007, dated 2012).

For one series, the target named is T1, RARα (Homo sapiens, UniProt P10276).
T1 sequence (P10276 183-462 limits assumed): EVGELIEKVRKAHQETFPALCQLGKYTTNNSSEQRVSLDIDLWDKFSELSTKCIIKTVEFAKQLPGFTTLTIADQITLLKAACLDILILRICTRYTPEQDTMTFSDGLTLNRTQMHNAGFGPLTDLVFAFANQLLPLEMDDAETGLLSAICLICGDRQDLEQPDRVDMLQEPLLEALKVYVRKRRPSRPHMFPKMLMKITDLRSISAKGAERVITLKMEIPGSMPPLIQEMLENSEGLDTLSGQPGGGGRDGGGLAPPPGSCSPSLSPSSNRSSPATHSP
Briefly: Transactivation assay (luciferase reporter, crossed curves vs reference agonist, Schild regression). Particulars: HeLa stable transfectants, ERE-βGlob-Luc-SV-Neo reporter and RARα ER-DBD-puro; 18 hours incubation; apparent Kd; read-out: RARα Kdapp. It counts as cell-based. How it is done: (§1) This activity on RARα, β and γ receptors is measured in a transactivation test and quantified by means of the dissociation constant Kdapp (apparent).
(§2) The activation of receptors with an agonist (activator) in HeLa cells leads to the expression of a reporter gene, luciferase, which, in the presence of a substrate, generates light. The activation of the receptors can thus be measured by quantifying the luminescence produced after incubation of the cells in the presence of a reference agonist. Inhibitory products will displace the agonist from its site, thus preventing activation of the receptor. The activity is measured by quantifying the decrease in light produced. This measurement makes it possible to determine the inhibitory activity of the compounds according to the invention.
(§3) In this study, a constant is determined which represents the affinity of the molecules for the receptor. Since this value can fluctuate depending on the basal activity and the expression of the receptor, it is referred to as the Kd apparent (KdApp).
(§4) To determine this constant, “crossed curves” of the test product against a reference agonist, 4-[2-(5,5,8,8-tetramethyl-5,6,7,8-tetrahydronaphthalen-2-yl)propenyl]benzoic acid, are realized in 96-well plates. The test product is used at 10 concentrations and the reference agonist at 7 concentrations. In each well, the cells are in contact with a concentration of the test product and with a concentration of the reference agonist, 4-[2-(5,5,8,8-tetramethyl-5,6,7,8-tetrahydronaphthalen-2-yl)]propenyl]benzoic acid. Measurements are also carried out for the total agonist control (4-[2-(5,5,8,8-tetramethyl-5,6,7,8-tetrahydro-naphthalen-2-yl)propenyl]benzoic acid) and the inverse agonist control, 4-{(E)-3[4-(4-tert-butylphenyl)-5,5,8,8-tetramethyl-5,6,7,8-tetrahydronaphthalen-2-yl]-3-oxopropenyl}benzoic acid.
(§5) These AC50 values are used to calculate the Schild regression by plotting a straight line corresponding to the Schild equation (“Quantitation in receptor pharmacology” Tervy P. Kenakin, Receptors and Channels, 2001, 7, 371-385).
(§6) The HeLa cell lines used are stable transfectants containing the ERE-βGlob-Luc-SV-Neo (reporter gene) and RAR (α, β, γ) ER-DBD-puro plasmids. These cells are seeded in 96-well plates at a rate of 10 000 cells per well in 100 μl of DMEM medium without phenol red, supplemented with 10% of defatted calf serum. The plates are then incubated at 37° C., 7% CO2, for 4 hours.
(§7) The plates are then incubated for 18 hours at 37° C., 7% CO2. The culture medium is removed by turning the plates over, and 100 μl of a 1:1 PBS/luciferin mixture are added to each well. After 5 minutes, the plates are read using a luminescence reader.
Background: In a reporter assay the amount or activity of a reporter protein is the signal.

The target in a further series is T2, RARβ (Homo sapiens, UniProt P10826).
T2 sequence (P10826 154-455 limits assumed): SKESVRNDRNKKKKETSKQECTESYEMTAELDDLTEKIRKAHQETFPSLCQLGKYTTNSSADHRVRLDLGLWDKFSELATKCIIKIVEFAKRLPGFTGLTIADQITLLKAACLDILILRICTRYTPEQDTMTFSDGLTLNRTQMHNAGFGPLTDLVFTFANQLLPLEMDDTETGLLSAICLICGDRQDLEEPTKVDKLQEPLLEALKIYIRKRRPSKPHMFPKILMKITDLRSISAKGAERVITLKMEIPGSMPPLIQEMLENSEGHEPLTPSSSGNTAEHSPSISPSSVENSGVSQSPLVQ
The description is as above. It is filed as cell-based. The note with it: HeLa stable transfectants, ERE-βGlob-Luc-SV-Neo reporter and RARβ ER-DBD-puro; 18 hours incubation; apparent Kd; read-out: RARβ Kdapp. How it is done: as §1, §2, §3, §4, §5, §6, §7

The next series has as its target T3, RARγ (Homo sapiens, UniProt P13631).
T3 sequence (P13631 185-454 limits assumed): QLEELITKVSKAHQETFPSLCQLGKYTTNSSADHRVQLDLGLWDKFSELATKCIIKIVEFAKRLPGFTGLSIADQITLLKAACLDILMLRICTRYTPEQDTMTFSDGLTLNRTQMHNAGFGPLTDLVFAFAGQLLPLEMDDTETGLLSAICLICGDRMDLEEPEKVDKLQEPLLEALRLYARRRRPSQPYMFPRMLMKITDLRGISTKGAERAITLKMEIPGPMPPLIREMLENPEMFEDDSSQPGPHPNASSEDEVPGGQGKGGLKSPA
Described as above. It counts as cell-based. The note with it: HeLa stable transfectants, ERE-βGlob-Luc-SV-Neo reporter and RARγ ER-DBD-puro; 18 hours incubation; apparent Kd; read-out: RARγ Kdapp. How it is done: as §1, §2, §3, §4, §5, §6, §7

Structures are written as SMILES. pKd: −log10 of the molar value.

As to `CN(C)c1c(Cl)cc(C(O)C#Cc2ccc(C(=O)O)c(O)c2)cc1C(C)(C)C` (stereo not drawn) [Compound of example 8, 4-[3-(3-tert-butyl-5-chloro-4-dimethylaminophenyl)-3-hydroxyprop-1-ynyl]-2-hydroxybenzoic acid], the values for the pKd at RARα, on RARβ and on RARγ were 6.60, 7.22 and 8.40, respectively.

For `CCN(CC)c1ccc(C(O)C#Cc2ccc(C(=O)O)cc2)cc1C(C)C` (stereo not drawn) [Compound of example 11, 4-[3-(4-diethylamino-3-isopropylphenyl)-3-hydroxyprop-1-ynyl]benzoic acid], the pKd was 6.00 on RARα, 7.22 at RARβ and 7.52 on RARγ.

`CCN(CC)c1ccc(C(O)C#Cc2ccc(C(=O)O)c(O)c2)cc1C(C)(C)C` (stereo not drawn) [Compound of example 6, 4-[3-(3-tert-butyl-4-diethylaminophenyl)-3-hydroxyprop-1-ynyl]-2-hydroxybenzoic acid]: the pKd on RARα is 6.60; on RARβ, 6.30; at RARγ, 7.22.

Consider `CC(C)(C)c1cc(C(O)C#Cc2ccc(C(=O)O)cc2)ccc1N1CCCC1` (stereo not drawn) [Compound of example 4, 4-[3-(3-tert-butyl-4-pyrrolidin-1-ylphenyl)-3-hydroxyprop-1-ynyl]benzoic acid], for which the pKd on RARα was 6.00; at RARβ, 6.60; on RARγ, 7.52.

As for `CN(C)c1c(Cl)cc(C(O)C#Cc2ccc(C(=O)O)cc2)cc1C(C)(C)C` (stereo not drawn) [Compound of example 7, 4-[3-(3-tert-butyl-5-chloro-4-dimethylaminophenyl)-3-hydroxyprop-1-ynyl]benzoic acid], the pKd on RARα was 6.92; on RARβ it was 7.82; at RARγ, 8.70.

With `CN(C)c1ccc(C(O)C#Cc2ccc(C(=O)O)cc2)cc1C(C)(C)C` (stereo not drawn) [Compound of example 3, 4-[3-(3-tert-butyl-4-dimethylaminophenyl)-3-hydroxyprop-1-ynyl]benzoic acid], the pKd is 6.60 at RARα, 6.92 on RARβ and 7.82 at RARγ.

Consider `CC(C)c1cc(C(O)C#Cc2ccc(C(=O)O)c(O)c2)cc(C(C)C)c1N(C)C` (stereo not drawn) [Compound of example 10, 4-[3-(4-Dimethylamino-3,5-diisopropylphenyl)-3-hydroxyprop-1-ynyl]-2-hydroxybenzoic acid], for which the pKd at RARα was 6.00; at RARβ, 6.92; at RARγ, 9.00.

For `CC(C)(C)c1cc(C(O)C#Cc2ccc(C(=O)O)cc2)ccc1N1CCCCC1` (stereo not drawn) [Compound of example 5, 4-[3-(3-tert-butyl-4-piperidin-1-ylphenyl)-3-hydroxyprop-1-ynyl]benzoic acid], the pKd was 5.40 on RARα and 5.70 on RARβ.

Turning to `CCN(CC)c1ccc(C(O)C#Cc2ccc(C(=O)O)cc2)cc1C(C)(C)C` (stereo not drawn) [Compound of example 1, 4-[3-(3-tert-butyl-4-diethylaminophenyl)-3-hydroxyprop-1-ynyl]benzoic acid], the melting point (as a rule, the temperature, or range, at which the solid turns liquid) is 140 °C. Moreover, at RARα, the pKd was 6.20. In addition, at RARβ, the pKd is 6.73. Moreover, the pKd on RARγ is 7.43.

Consider `CC(C)c1cc(C(O)C#Cc2ccc(C(=O)O)cc2)cc(C(C)C)c1N(C)C` (stereo not drawn) [Compound of example 9, 4-[3-(4-Dimethylamino-3,5-diisopropylphenyl)-3-hydroxyprop-1-ynyl]benzoic acid], for which the pKd on RARα is 7.22; on RARβ, 7.22; at RARγ, 9.30.
